Experiments:
TIP48/TIP49 complex = molecular target: T1, TIP48/TIP49 complex (Homo sapiens, UniProt Q9Y230+Q9Y265); test: ATPase assay of TIP48/TIP49 complex (ADP-Glo); assay type: biochemical; details: concentration at which the ATPase activity was inhibited by 50%
T1 construct: made in house; host or cells: E. coli
How it was run: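 Recombinant human TIP48 and TIP49 expressed in E. coli (24.5 μg/mL final) were incubated 1.5 h at room temperature with compound (0.0007–200 μM, 2% DMSO) in Tris-HCl pH 7.5 buffer containing MgCl2 and ATP. ADP formed was detected by ADP-Glo luminescence; inhibition came from dose-response curves.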

[1] = tested on: human lymphoma cell line RAMOS cells; test: Cell growth inhibition test using RAMOS cell, MTT assay; assay type: cell-based; details: 50% growth inhibition concentration
Method: A cell growth inhibition test was carried out by treating human lymphoma cell line RAMOS cells with a test compound for a given period and then counting the number of viable cells by MTT assay or CellTiter-Glo Luminescent Cell Viability Assay (manufactured by Promega Corp.; hereinafter, referred to as ATP assay).
RAMOS cells were suspended in a medium (RPMI1640 medium containing 10% fetal bovine serum). The cell suspension was inoculated at 5000 cells/150 μL/well to a 96-well multiwell plate. The test compound was dissolved in DMSO, and this solution was diluted with medium to prepare a sample solution (DMSO concentration: 1% or lower). Subsequently, test compound-free medium or the sample solution was added thereto at 50 μL/well. The MTT assay was carried out at the day of addition of the sample solution or the DMSO dilution to the cells and after culture at 37° C. for 3 days under 5% CO2 of the cells supplemented with the sample solution or the medium. The MTT assay was carried out as follows.
A 5 mg/mL solution of MTT (3-(4,5-dimethylthiazol-2-yl)-2,5-diphenyltetrazolium bromide, Sigma-Aldrich Corp., M-2128) was prepared using a phosphate buffered solution (Dulbecco's phosphate-buffered saline). This MTT solution was added at 20 μL/well to the plate. Then, the plate was incubated at 37° C. for 4 hours under 5% CO2. The plate was centrifuged at 1200 rpm for 5 minutes, and then, the culture supernatant was removed by suction using a dispenser. DMSO was added thereto at 150 μL/well to dissolve formed formazan. […] from each well was rendered uniform by the stirring of the plate using a plate mixer. The absorbance of each well was measured using a plate reader under conditions involving OD of 540 nm and reference of 660 nm.
The number of viable cells and absorbance (hereinafter, referred to as an OD value) have been confirmed to correlate with each other. Therefore, the rate of cell growth was calculated according to the following expression: Rate of cell growth (T/C %) of a test compound-supplemented well=100×[(B−C)/(A−C)] wherein A represents the OD value (final culture date) of a test compound-free well; B represents the OD value (final culture date) of a test compound-containing well; and C represents the OD value (day of cell inoculation) of a well at the start of contact of the cells with the test compound.
T/C % at each concentration of the test compound was determined. The concentration at which the test compound offered 50% growth rate was calculated as a 50% growth inhibition concentration (GI50) value from the growth rates at two points interpolating 50% and the concentrations, and is shown in Table 56.

[2] = tested on: human lymphoma cell line RAMOS cells; test: Cell growth inhibition test using RAMOS cell, ATP assay (CellTiter-Glo); assay type: cell-based; details: Homo sapiens, 72 h, cultured 3 days, 50% growth inhibition concentration
How it was run: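 RAMOS cells seeded at 4000 cells/well with compound and cultured 3 days at 37° C, 5% CO2; viability by CellTiter-Glo luminescence. Growth rate T/C % = 100×[(B−C)/(A−C)] using day-0 and final readings; GI50 interpolated from the two concentrations bracketing 50% growth.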

T1 sequence (Q9Y230 whole entry): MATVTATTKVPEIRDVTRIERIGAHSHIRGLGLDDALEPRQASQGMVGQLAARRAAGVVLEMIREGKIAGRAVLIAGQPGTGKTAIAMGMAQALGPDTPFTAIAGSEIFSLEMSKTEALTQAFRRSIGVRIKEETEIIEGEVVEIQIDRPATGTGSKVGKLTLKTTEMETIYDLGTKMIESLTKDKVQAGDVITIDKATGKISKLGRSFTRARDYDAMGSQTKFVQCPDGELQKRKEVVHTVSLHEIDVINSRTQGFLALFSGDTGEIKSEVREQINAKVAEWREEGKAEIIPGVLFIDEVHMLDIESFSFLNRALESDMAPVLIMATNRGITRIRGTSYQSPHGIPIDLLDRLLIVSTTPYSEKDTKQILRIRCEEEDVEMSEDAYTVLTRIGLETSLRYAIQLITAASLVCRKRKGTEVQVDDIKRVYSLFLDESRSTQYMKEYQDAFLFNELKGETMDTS
T1 sequence (Q9Y265 whole entry): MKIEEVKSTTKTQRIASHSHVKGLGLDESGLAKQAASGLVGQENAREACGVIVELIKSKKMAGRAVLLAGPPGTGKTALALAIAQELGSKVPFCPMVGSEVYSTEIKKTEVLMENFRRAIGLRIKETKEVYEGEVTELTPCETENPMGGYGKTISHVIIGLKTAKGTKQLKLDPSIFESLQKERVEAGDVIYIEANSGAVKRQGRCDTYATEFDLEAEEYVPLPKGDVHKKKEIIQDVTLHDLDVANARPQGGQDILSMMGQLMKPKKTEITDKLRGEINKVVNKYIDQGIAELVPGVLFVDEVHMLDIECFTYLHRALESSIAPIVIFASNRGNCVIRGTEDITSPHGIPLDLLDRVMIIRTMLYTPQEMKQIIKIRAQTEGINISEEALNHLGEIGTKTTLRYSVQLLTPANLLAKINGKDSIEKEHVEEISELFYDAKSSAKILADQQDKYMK

Row | IC50 (TIP48/TIP49 complex) [nM] | GI50 [1] [nM] | GI50 ([2]; Ramos) [nM] | SMILES | GI50 [2] [nM]
1 | 54 | 850 |  | COc1ccc(CN(C)Cc2c(NC(=O)CC(C)(C)CNC(=O)c3cc(Cl)ccc3OC)c(=O)n(-c3ccccc3)n2C)c(OC)c1 [Example 3, 5-Chloro-N-{4-[(5-{[(2,4-dimethoxyphenylmethyl)-methylamino]methyl}-1-methyl-3-oxo-2-phenyl-2,3-dihydro-1H-pyrazol-4-yl)amino]-2,2-dimethyl-4-oxobutyl}-2-methoxybenzamide] | 
2 | 48 | 170 |  | CNCc1c(NC(=O)CC(C)(C)CNC(=O)c2cc(Cl)ccc2OC)c(=O)n(-c2ccccc2)n1C [Example 4, 5-Chloro-N-(2,2-dimethyl-4-{[1-methyl-5-(methylaminomethyl)-3-oxo-2-phenyl-2,3-dihydro-1H-pyrazol-4-yl]amino}-4-oxobutyl)-2-methoxybenzamide] | 
3 | 170 | 180 |  | COc1ccc(Cl)cc1C(=O)NCC(C)(C)CC(=O)Nc1c(CN(C)C)n(C)n(-c2ccccc2)c1=O [Example 5, 5-Chloro-N-[4-({5-[(dimethylamino)methyl]-1-methyl-3-oxo-2-phenyl-2,3-dihydro-1H-pyrazol-4-yl}amino)-2,2-dimethyl-4-oxobutyl]-2-methoxybenzamide] | 
4 | 150 | 170 |  | COc1cc(F)c(Cl)cc1C(=O)NCC(C)(C)CC(=O)Nc1c(CN(C)C)n(C)n(-c2ccccc2)c1=O [Example 6, 5-Chloro-N-[4-({5-[(dimethylamino)methyl]-1-methyl-3-oxo-2-phenyl-2,3-dihydro-1H-pyrazol-4-yl}amino)-2,2-dimethyl-4-oxobutyl]-4-fluoro-2-methoxybenzamide] | 
5 | 110 | 470 |  | COc1ncc(Cl)cc1C(=O)NCC(C)(C)CC(=O)Nc1c(CN(C)C)n(C)n(-c2ccccc2)c1=O [Example 7, 5-Chloro-N-[4-({5-[(dimethylamino)methyl]-1-methyl-3-oxo-2-phenyl-2,3-dihydro-1H-pyrazol-4-yl}amino)-2,2-dimethyl-4-oxobutyl]-2-methoxypyridine-3-carboxamide] | 
6 | 96 | 170 |  | COc1ccc(Cl)cc1C(=O)NCC(C)(C)CC(=O)Nc1c(CN(C)CCO)n(C)n(-c2ccccc2)c1=O [Example 8, 5-Chloro-N-(4-[(5-{[2-hydroxyethyl(methyl)amino]methyl}-1-methyl-3-oxo-2-phenyl-2,3-dihydro-1H-pyrazol-4-yl)amino]-2,2-dimethyl-4-oxobutyl)-2-methoxybenzamide] | 
7 | 210 | 480 |  | COc1cc(F)c(Cl)cc1NC(=O)CC(C)(C)CC(=O)Nc1c(CN(C)C)n(C)n(-c2ccccc2)c1=O [Example 9, N-(5-Chloro-4-fluoro-2-methoxyphenyl)-N′-{5-[(dimethylamino)methyl]-1-methyl-3-oxo-2-phenyl-2,3-dihydro-1H-pyrazol-4-yl}-3,3-dimethylpentanediamide] | 
8 | 14 | 45 |  | CCOc1ccc(Cl)cc1C(=O)NCC(C)(C)CC(=O)Nc1c(CCNC(=O)OC(C)(C)C)n(C)n(-c2ccccc2)c1=O [Example 10, tert-Butyl N-{2-[4({4-[(5-chloro-2-ethoxybenzoyl)amino]-3,3-dimethylbutanoyl}amino)-2-methyl-5-oxo-1-phenyl-2,3-dihydro-1H-pyrazol-3-yl]ethyl}carbamate] | 
9 | 60 | 130 |  | CCOc1ccc(Cl)cc1C(=O)NCC(C)(C)CC(=O)Nc1c(CCN(CC)CC)n(C)n(-c2ccccc2)c1=O [Example 17, 5-Chloro-N-[4-({5-[2-(diethylamino)ethyl]-1-methyl-3-oxo-2-phenyl-2,3-dihydro-1H-pyrazol-4-yl}amino)-2,2-dimethyl-4-oxobutyl]-2-ethoxybenzamide] | 
10 | 56 |  | 580 | CCOc1ncc(Cl)cc1NC(=O)CC(C)(C)CC(=O)Nc1c(C(C)OC)n(C)n(-c2ccccc2)c1=O (centres unmarked) [Example 126, N-(5-Chloro-2-ethoxy-3-pyridyl)-N′-[5-(1-methoxyethyl)-1-methyl-3-oxo-2-phenyl-2,3-dihydro-1H-pyrazol-4-yl]-3,3-dimethylpentanediamide] | 
11 | 55 |  | 130 | CCc1c(NC(=O)CC(C)(C)CNC(=O)c2cc(Cl)ccc2OCOC)c(=O)n(-c2ccccc2)n1C [Example 127, 5-Chloro-N-{4-[(5-ethyl-1-methyl-3-oxo-2-phenyl-2,3-dihydro-1H-pyrazol-4-yl)amino]-2,2-dimethyl-4-oxobutyl}-2-(methoxymethoxy)benzamide] | 
12 | 52 |  | 190 | CCOc1ccc(Cl)cc1C(=O)NCC(C)(C)CC(=O)Nc1c(CCCC(=O)N(C)C)n(C)n(-c2ccccc2)c1=O [Example 129, 5-Chloro-N-[4-({5-[4-(dimethylamino)-4-oxobutyl]-1-methyl-3-oxo-2-phenyl-2,3-dihydro-1H-pyrazol-4-yl}amino)-2,2-dimethyl-4-oxobutyl]-2-ethoxybenzamide] | 
13 | 54 |  | 64 | CCOc1ccc(Cl)cc1C(=O)NCC(C)(C)CC(=O)Nc1c(CCCCO)n(C)n(-c2ccccc2)c1=O [Example 130, 5-Chloro-2-ethoxy-N-(4-{[5-(4-hydroxybutyl)-1-methyl-3-oxo-2-phenyl-2,3-dihydro-1H-pyrazol-4-yl]amino}-2,2-dimethyl-4-oxobutyl)benzamide] | 
14 | 62 |  | 130 | CCOc1ccc(Cl)cc1C(=O)NCC(C)(C)CC(=O)Nc1c(CC(=O)OC)n(C)n(-c2ccccc2)c1=O [Example 131, Methyl 2-[4-({4-[(5-chloro-2-ethoxybenzoyl)amino]-3,3-dimethylbutanoyl}amino)-2-methyl-5-oxo-1-phenyl-2,3-dihydro-1H-pyrazol-3-yl]acetate] | 
15 | 100 |  | 120 | CCOc1ccc(Cl)cc1C(=O)NCC(C)(C)CC(=O)Nc1c(CC(N)=O)n(C)n(-c2ccccc2)c1=O [Example 132, N-(4-{[5-(2-Amino-2-oxoethyl)-1-methyl-3-oxo-2-phenyl-2,3-dihydro-1H-pyrazol-4-yl]amino}-2,2-dimethyl-4-oxobutyl)-5-chloro-2-ethoxybenzamide] | 
16 | 81 |  | 500 | CCOc1ccc(Cl)cc1C(=O)NCC(C)(C)CC(=O)Nc1c(CCC(=O)N2CCCC2)n(C)n(-c2ccccc2)c1=O [Example 133, 5-Chloro-N-(2,2-dimethyl-4-{[1-methyl-3-oxo-5-(3-oxo-3-pyrrolidin-1-ylpropyl)-2-phenyl-2,3-dihydro-1H-pyrazol-4-yl]amino}-4-oxobutyl)-2-ethoxybenzamide] | 
17 | 83 |  | 230 | CCOc1ccc(Cl)cc1C(=O)NCC(CF)(CF)CC(=O)Nc1c(COC)n(C)n(-c2ccccc2)c1=O [Example 148, N-(2,2-Bis(fluoromethyl)-4-{[5-(methoxymethyl)-1-methyl-3-oxo-2-phenyl-2,3-dihydro-1H-pyrazol-4-yl]amino}-4-oxobutyl)-5-chloro-2-ethoxybenzamide] | 
18 | 33 |  | 310 | CCOc1ccc(Cl)cc1C(=O)NCC(C)(C)CC(=O)Nc1c(CCC(F)(F)F)n(C)n(-c2ccccc2)c1=O [Example 158, 5-Chloro-N-(2,2-dimethyl-4-{[1-methyl-3-oxo-2-phenyl-5-(3,3,3-trifluoropropyl)pyrazol-4-yl]amino}-4-oxobutyl)-2-ethoxybenzamide] | 

Row | SMILES | IC50 (TIP48/TIP49 complex) [nM] | GI50 [1] [nM] | GI50 ([2]; Ramos) [nM] | GI50 [2] [nM]
19 | CCOc1cc(F)c(Cl)cc1C(=O)NCC(C)(C)C(C)C(=O)Nc1c(COC)n(C)n(-c2ccccc2)c1=O (centres unmarked) [Example 159, 5-Chloro-2-ethoxy-4-fluoro-N-(4-{[5-(methoxymethyl)-1-methyl-3-oxo-2-phenyl-2,3-dihydro-1H-pyrazol-4-yl]amino}-2,2,3-trimethyl-4-oxobutyl)benzamide] | 77 |  |  | 840

— US20170107207A1, “AMINOPYRAZOLONE DERIVATIVE” (DAIICHI SANKYO COMPANY, LIMITED, priority 2014, published 2017)
